Measured values taken from patent US10385057B2, “Pyrazole compounds and methods of making and using same” (Lundbeck La Jolla Research Center, Inc., priority 2015, dated 2019).

Columns and labels:
[1] = target: T1, FAAH (Mus musculus, UniProt O08914); experiment: In vitro competitive activity-based protein profiling, mouse FAAH; format: biochemical; settings: for inhibition at 1 µM: read-out: FAAH % inh. 1 μM (mouse)
T1 construct: mouse brain membrane fraction or cell lysates for mouse assays; from tissue
T1 sequence (O08914 1-579): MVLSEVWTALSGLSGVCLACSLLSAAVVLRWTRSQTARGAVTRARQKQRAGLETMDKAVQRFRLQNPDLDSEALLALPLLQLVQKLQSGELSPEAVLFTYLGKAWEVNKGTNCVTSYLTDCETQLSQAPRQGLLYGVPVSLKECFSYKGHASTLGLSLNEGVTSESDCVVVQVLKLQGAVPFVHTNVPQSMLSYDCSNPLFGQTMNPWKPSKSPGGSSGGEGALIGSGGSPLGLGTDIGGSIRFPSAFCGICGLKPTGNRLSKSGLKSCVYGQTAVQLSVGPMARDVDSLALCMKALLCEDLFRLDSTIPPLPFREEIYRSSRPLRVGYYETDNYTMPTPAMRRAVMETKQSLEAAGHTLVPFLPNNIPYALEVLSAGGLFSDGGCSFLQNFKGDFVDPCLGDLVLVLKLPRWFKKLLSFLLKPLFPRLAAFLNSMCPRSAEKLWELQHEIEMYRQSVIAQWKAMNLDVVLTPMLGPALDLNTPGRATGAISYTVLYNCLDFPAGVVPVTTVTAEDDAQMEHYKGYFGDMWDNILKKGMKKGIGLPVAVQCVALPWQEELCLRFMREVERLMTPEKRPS
Method in brief: (§1)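 Mouse brain membranes or cell lysates (mouse) and human prefrontal cortex or cell membrane fractions (human), 1.0 mg/mL protein, preincubated with inhibitor 30 min at 37 °C, then FP-Rh or HT-01 probe 30 min at 37 °C. SDS-PAGE; MAGL and FAAH activity from in-gel fluorescence band intensity.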

[2] = target: T2, MAGL (Mus musculus, UniProt O35678); experiment: In vitro competitive activity-based protein profiling, mouse MAGL; format: biochemical; settings: for inhibition at 1 µM: read-out: MAGL % inh. 1 μM (mouse)
T2 construct: mouse brain membrane fraction or cell lysates for mouse assays; from tissue
T2 sequence (O35678 1-303): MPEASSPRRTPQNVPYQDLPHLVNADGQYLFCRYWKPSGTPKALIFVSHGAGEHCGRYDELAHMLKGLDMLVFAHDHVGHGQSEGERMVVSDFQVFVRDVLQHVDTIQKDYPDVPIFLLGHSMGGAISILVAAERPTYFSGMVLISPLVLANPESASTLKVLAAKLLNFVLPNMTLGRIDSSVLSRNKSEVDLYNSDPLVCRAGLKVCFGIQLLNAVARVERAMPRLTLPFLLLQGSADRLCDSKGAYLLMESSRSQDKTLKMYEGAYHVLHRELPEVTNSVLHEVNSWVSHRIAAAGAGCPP
Method in brief: as §1

inhibition at 1 µM [1] [%] | inhibition at 1 µM [2] [%] | IC50 [1] [nM] | IC50 [2] [nM] | SMILES
50 to 75 | ≥ 75 |  |  | CN(Cc1ccc(-c2cccnn2)cc1C(F)(F)F)[C@H]1C[C@@H]2CN(C(=O)n3cc(C(N)=O)cn3)C[C@@H]2C1 [Example 225, 1-(trans-5-(methyl(4-(pyridazin-3-yl)-2-(trifluoromethyl)benzyl)amino)octahydrocyclopenta[c]pyrrole-2-carbonyl)-1H-pyrazole-4-carboxamide]
≥ 75 | ≥ 75 |  |  | Cc1ccc(CN2CCC3(CCN(C(=O)n4cc(C(F)(F)F)cn4)C3)C2)cc1 (stereo not drawn) [Example 173, (7-(4-methylbenzyl)-2,7-diazaspiro[4.4]nonan-2-yl)(4-(trifluoromethyl)-1H-pyrazol-1-yl)methanone]
≥ 75 | ≥ 75 | ≤ 100 | 100 to 1000 | O=C(N1CCC2(CCN(Cc3cccc(Cl)c3)C2)C1)n1cc(Cl)cn1 (single isomer, unassigned) [Example 132, (4-chloro-1H-pyrazol-1-yl)(7-(3-chlorobenzyl)-2,7-diazaspiro[4.4]nonan-2-yl)methanone]
≥ 75 | ≥ 75 | 100 to 1000 | 100 to 1000 | CN(Cc1cccc(N2CCOCC2)c1)[C@H]1C[C@@H]2CN(C(=O)n3cc(Cl)cn3)C[C@@H]2C1 [Example 82, (4-chloro-1H-pyrazol-1-yl)(trans-5-(methyl(3-morpholinobenzyl)amino)hexahydrocyclopenta[c]pyrrol-2(1H)-yl)methanone]
 |  | ≤ 100 | ≤ 100 | NC(=O)c1cnn(C(=O)N2CC[C@]3(CCN(Cc4cc(Cl)cc(C(F)(F)F)c4)C3)C2)c1 [Example 193, (S)-1-(7-(3-chloro-5-(trifluoromethyl)benzyl)-2,7-diazaspiro[4.4]nonane-2-carbonyl)-1H-pyrazole-4-carboxamide]
25 to 50 | ≥ 75 |  |  | O=C(N1CCC2(CCN(Cc3ccccc3N3CCCC3)C2)C1)n1cc(C(F)(F)F)cn1 (stereo not drawn) [Example 181, (7-(2-(pyrrolidin-1-yl)benzyl)-2,7-diazaspiro[4.4]nonan-2-yl)(4-(trifluoromethyl)-1H-pyrazol-1-yl)methanone]
≥ 75 | ≥ 75 |  |  | O=C(c1cnn(C(=O)N2CC3CN(Cc4cc(Cl)ccc4Cl)CC3C2)c1)N1CCOCC1 (stereo not drawn) [Example 5, (5-(2,5-dichlorobenzyl)hexahydropyrrolo[3,4-c]pyrrol-2(1H)-yl)(4-(morpholine-4-carbonyl)-1H-pyrazol-1-yl)methanone]
≥ 75 | ≥ 75 |  |  | NC(=O)c1cnn(C(=O)N2CCC3(CCN(Cc4ccc(N5CCOCC5)cc4Cl)C3)C2)c1 (stereo not drawn) [Example 204, 1-(7-(2-chloro-4-morpholinobenzyl)-2,7-diazaspiro[4.4]nonane-2-carbonyl)-1H-pyrazole-4-carboxamide]
≥ 75 | ≥ 75 |  |  | CN(Cc1cc(C(F)(F)F)ccc1Cl)[C@H]1C[C@@H]2CN(C(=O)n3cc(C(N)=O)cn3)C[C@@H]2C1 [Example 214, 1-(trans-5-((2-chloro-5-(trifluoromethyl)benzyl)(methyl)amino)octahydrocyclopenta[c]pyrrole-2-carbonyl)-1H-pyrazole-4-carboxamide]
≥ 75 | ≥ 75 |  |  | CN(Cc1ccc(Oc2cccnc2)cc1)[C@@H]1C[C@@H]2CN(C(=O)n3cc(Cl)cn3)C[C@@H]2C1 [Example 160, (4-chloro-1H-pyrazol-1-yl)(cis-5-(methyl(4-(pyridin-3-yloxy)benzyl)amino)hexahydrocyclopenta[c]pyrrol-2(1H)-yl)methanone]
≥ 75 | ≥ 75 | ≤ 100 | 100 to 1000 | COc1cccc(CN2CCC3(CCN(C(=O)n4cc(C(F)(F)F)cn4)C3)C2)c1 (stereo not drawn) [Example 171]
≥ 75 | ≥ 75 | ≤ 100 | ≤ 100 | O=C(N1CC2CN(Cc3ccc(C(F)(F)F)cc3)CC2C1)n1cc(Cl)cn1 (stereo not drawn) [Example 120, (4-chloro-1H-pyrazol-1-yl)(5-(4-(trifluoromethyl)benzyl)hexahydropyrrolo[3,4-c]pyrrol-2(1H)-yl)methanone]
 |  | ≤ 100 | ≤ 100 | NC(=O)c1cnn(C(=O)N2CC[C@@]3(CCN(Cc4cc(Cl)cc(C(F)(F)F)c4)C3)C2)c1 [Example 192, (R)-1-(7-(3-chloro-5-(trifluoromethyl)benzyl)-2,7-diazaspiro[4.4]nonane-2-carbonyl)-1H-pyrazole-4-carboxamide]
≥ 75 | ≥ 75 | ≤ 100 | ≤ 100 | O=C(N1CCC2(CCN(Cc3ccc(N4CCOCC4)cc3Cl)C2)C1)n1cc(Cl)cn1 (stereo not drawn) [Example 137, (4-chloro-1H-pyrazol-1-yl)(7-(2-chloro-4-morpholinobenzyl)-2,7-diazaspiro[4.4]nonan-2-yl)methanone]
≥ 75 | ≥ 75 | 100 to 1000 | 100 to 1000 | O=C(N1CC2CN(Cc3ccc(N4CCCC4)cc3)CC2C1)n1cc(Cl)cn1 (stereo not drawn) [Example 123, (4-chloro-1H-pyrazol-1-yl)(5-(4-(pyrrolidin-1-yl)benzyl)hexahydropyrrolo[3,4-c]pyrrol-2(1H)-yl)methanone]
≥ 75 | ≥ 75 | 100 to 1000 | 100 to 1000 | COc1ccc(CN2CCC3(CCN(C(=O)n4cc(C(F)(F)F)cn4)C3)C2)cc1 (stereo not drawn) [Example 167, (7-(4-methoxybenzyl)-2,7-diazaspiro[4.4]nonan-2-yl)(4-(trifluoromethyl)-1H-pyrazol-1-yl)methanone]
50 to 75 | ≥ 75 | 1000 to 10000 | 100 to 1000 | CC(C)c1ccc(CN2CC3CN(C(=O)n4cc(Cl)cn4)CC3C2)c(N2CCCC2)c1 (stereo not drawn) [Example 108, (4-chloro-1H-pyrazol-1-yl)(5-(4-isopropyl-2-(pyrrolidin-1-yl)benzyl)hexahydropyrrolo[3,4-c]pyrrol-2(1H)-yl)methanone]
≥ 75 | ≥ 75 | ≤ 100 | ≤ 100 | O=C(N1CC2CN(Cc3ccccc3Cl)CC2C1)n1cc(C(F)(F)F)cn1 (stereo not drawn) [Example 151, (5-(2-chlorobenzyl)hexahydropyrrolo[3,4-c]pyrrol-2(1H)-yl)(4-(trifluoromethyl)-1H-pyrazol-1-yl)methanone]
≥ 75 | ≥ 75 |  |  | O=C(c1cnn(C(=O)N2CCC3(CCN(Cc4cc(Cl)ccc4Cl)C3)C2)c1)N1CCN(C2CC2)CC1 (stereo not drawn) [Example 30, (4-cyclopropylpiperazin-1-yl)(1-(7-(2,5-dichlorobenzyl)-2,7-diazaspiro[4.4]nonane-2-carbonyl)-1H-pyrazol-4-yl)methanone]
≥ 75 | ≥ 75 | ≤ 100 | ≤ 100 | NC(=O)c1cnn(C(=O)N2CC3CN(Cc4cc(Cl)ccc4Cl)CC3C2)c1 (stereo not drawn) [Example 20, 1-(5-(2,5-dichlorobenzyl)octahydropyrrolo[3,4-c]pyrrole-2-carbonyl)-1H-pyrazole-4-carboxamide]
≥ 75 | ≥ 75 | 100 to 1000 | ≤ 100 | O=C(N1CC2CN(Cc3ccccc3N3CCOCC3)CC2C1)n1cc(C(F)(F)F)cn1 (stereo not drawn) [Example 157, (5-(2-morpholinobenzyl)hexahydropyrrolo[3,4-c]pyrrol-2(1H)-yl)(4-(trifluoromethyl)-1H-pyrazol-1-yl)methanone]
≥ 75 | ≥ 75 | ≤ 100 | 100 to 1000 | CN(Cc1cccc(Oc2cccnc2)c1)[C@@H]1C[C@@H]2CN(C(=O)n3cc(Cl)cn3)C[C@@H]2C1 [Example 165, (4-chloro-1H-pyrazol-1-yl)(cis-5-(methyl(3-(pyridin-3-yloxy)benzyl)amino)hexahydrocyclopenta[c]pyrrol-2(1H)-yl)methanone]
≥ 75 | ≥ 75 | ≤ 100 | ≤ 100 | Cc1cc(N2CCOCC2)ccc1CN1CC2CN(C(=O)n3cc(Cl)cn3)CC2C1 (stereo not drawn) [Example 131, (4-chloro-1H-pyrazol-1-yl)(5-(2-methyl-4-morpholinobenzyl)hexahydropyrrolo[3,4-c]pyrrol-2(1H)-yl)methanone]
